Results: article PMC11551755, “Structure-based discovery of first inhibitors targeting the helicase activity of human PIF1” (Nucleic Acids Research, 2024)

Biological target: T1, hPIF1HD V258A (Homo sapiens, UniProt Q9H611, V258A)
T1 construct: The human PIF1 helicase domain and mutants (hPIF1HD, residues 206–620); hexa-histidine tag (N, cleaved yes); made in house; host or cells: ArcticExpress BL21(DE3) E. coli (Agilent Technologies)
T1 sequence (Q9H611 206-620 V258A): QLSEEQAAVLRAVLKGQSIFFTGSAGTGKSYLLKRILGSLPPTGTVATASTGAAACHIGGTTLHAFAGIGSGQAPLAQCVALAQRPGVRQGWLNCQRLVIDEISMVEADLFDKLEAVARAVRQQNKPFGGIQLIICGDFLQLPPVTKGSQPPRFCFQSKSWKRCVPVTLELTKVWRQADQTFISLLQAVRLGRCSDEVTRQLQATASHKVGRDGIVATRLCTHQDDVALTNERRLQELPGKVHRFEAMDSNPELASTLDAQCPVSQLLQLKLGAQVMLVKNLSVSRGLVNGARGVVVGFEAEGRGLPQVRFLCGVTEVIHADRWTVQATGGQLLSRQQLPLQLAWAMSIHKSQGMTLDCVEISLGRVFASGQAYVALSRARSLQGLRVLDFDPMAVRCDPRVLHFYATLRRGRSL
Assay: ssDNA d(T)55 binding assay (EMSA), hPIF1HD V258A variant
Settings: 0.25 nM d(T)55, 2 nM protein, 5 mM AMP-PNP, 0.0078–2 mM compound; read-out: IC50 for inhibition of ssDNA binding, V258A
Protocol: DNA binding of hPIF1HD was assayed using a ^32P-5′ end-labelled oligo d(T)55 substrate (0.25 nM), under the same buffer conditions described for helicase assays, but with AMP-PNP instead of ATP. Reaction products were resolved on 5% poly-acrylamide gels (29:1 acrylamide:bis-acrylamide) using 0.25× TBE running buffer ([19],[28]). Gels were processed and reaction products quantified by phosphorimaging and IC50 values determined as described above.
In hPIF1HD/AMP-PNP/1 there are no direct hydrogen bonds between amino acid side chains and 1, however, Val 258 from domain 1A is making van der Waals interaction (<3.8 Å) with the amide group at one end of the molecule (Figure 1). From the structural data, we reasoned that substitution of the Val 258 with alanine (V258A) would increase the size of the binding pocket and its accessibility to ligand, while substitution with leucine (V258L) would decrease pocket size and possibly instigate a clash with Lys 556, disrupting interactions with compound 1 or derivatives. Accordingly, we purified hPIF1HD V258A and V258L variant forms and analysed ssDNA d(T)55 binding in the presence of SMIs, using EMSA as above.
Supplementary Figure 12. hPIF1HD variants V258A and V258L ssDNA binding IC50 determination by EMSA with selected SMIs. All binding reactions were assembled under helicase reaction conditions but with 0.25 nM radiolabelled oligo d(T)55, and 5 mM AMP-PNP. (A) DNA binding activity of wild type and mutant proteins was assessed by EMSA without inhibitors. […] 1D: Wild type (WT), V258A and V258L, not determined. 2: WT, 224 ± […]; V258A, 103 ± 31 µM; V258L, 304 ± 88 µM. 5: WT, 198 ± 54 µM; V258A, 79.2 ± 27 µM; V258L, 414 ± 45 µM. 6: WT, 722 ± 194 µM; V258A, 295 ± 116 µM; V258L, 1010 ± 282 µM. 10: WT, 224 ±59 µM; V258A, 152 ± 42 µM; V258L, 378 ± 99 µM. 11: WT, 284 ± 110 µM; V258A, 151 ± 51 µM; V258L, 551 ± 215 µM.

## CC(=O)Nc1ccc(-c2csc(N)n2)cc1-c1ccc(C)cc1 [Compound 10]
  IC50: 152 ± 42 µM

## CC(=O)c1ccc(-c2csc(N)n2)cc1 [Compound 2]
  IC50: 103 ± 31 µM

## CC(=O)Nc1ccc(-c2csc(N)n2)cc1C1=CCNCC1 [Compound 11]
  IC50: 151 ± 51 µM

## N#Cc1ccc(-c2csc(N)n2)cc1 [Compound 5]
  IC50: 79.2 ± 27 µM

## Nc1nc(-c2ccc(C(=O)c3ccccc3)cc2)cs1 [Compound 6]
  IC50: 295 ± 116 µM
